# ChEMBL document CHEMBL6134868, “Novel Aryl Sulfonium Modification on Vancomycin to Tackle MRSA and VRE In Vitro and In Vivo through Dual Enhanced Cell-Wall and Membrane Inhibition” (J Med Chem, 2025)
# Legend:
# Format in all cases: functional
# Details in all cases: time 16-24 hrs
# Enterococcus faecium [1] = test: Antibacterial activity against vancomycin-resistant Enterococcus faecium Efm-HS-0649 harboring VanA phenotype incubated for 16 to 24 hrs by broth microdilution assay
# Staphylococcus aureus [2] = test: Antibacterial activity against methicillin-resistant Staphylococcus aureus USA300 LAC incubated for 16 to 24 hrs by broth microdilution assay
# Staphylococcus aureus [3] = test: Antibacterial activity against vancomycin-intermediate Staphylococcus aureus Mu50 incubated for 16 to 24 hrs by broth microdilution assay
# Klebsiella pneumoniae = test: Antibacterial activity against Klebsiella pneumoniae KP-1 incubated for 16 to 24 hrs by broth microdilution assay
# Enterococcus faecium [4] = test: Antibacterial activity against vancomycin-resistant Enterococcus faecium Efm-HS-vb01 harboring VanB phenotype incubated for 16 to 24 hrs by broth microdilution assay
# Enterococcus faecium [5] = test: Antibacterial activity against vancomycin-resistant Enterococcus faecium Efm-HS-08257 harboring VanM phenotype incubated for 16 to 24 hrs by broth microdilution assay
# Pseudomonas aeruginosa = test: Antibacterial activity against Pseudomonas aeruginosa PAO1 incubated for 16 to 24 hrs by broth microdilution assay
# Acinetobacter baumannii [6] = test: Antibacterial activity against carbapenem-resistant Acinetobacter baumannii CRAB-1 clinical isolate incubated for 16 to 24 hrs by broth microdilution assay
# Escherichia coli = test: Antibacterial activity against Escherichia coli AB1157 incubated for 16 to 24 hrs by broth microdilution assay
# Enterococcus faecium [7] = test: Antibacterial activity against vancomycin-resistant Enterococcus faecium Efm-HS-vb02 harboring VanB phenotype incubated for 16 to 24 hrs by broth microdilution assay
# Acinetobacter baumannii [8] = test: Antibacterial activity against Acinetobacter baumannii ATCC19606 incubated for 16 to 24 hrs by broth microdilution assay
SMILES,MIC (Enterococcus faecium [1]) [µg/mL],MIC (Staphylococcus aureus [2]) [µg/mL],MIC (Staphylococcus aureus [3]) [µg/mL],MIC (Klebsiella pneumoniae) [µg/mL],MIC (Enterococcus faecium [4]) [µg/mL],MIC (Enterococcus faecium [5]) [µg/mL],MIC (Pseudomonas aeruginosa) [µg/mL],MIC (Acinetobacter baumannii [6]) [µg/mL],MIC (Escherichia coli) [µg/mL],MIC (Enterococcus faecium [7]) [µg/mL],MIC (Acinetobacter baumannii [8]) [µg/mL]
CN[C@H](CC(C)C)C(=O)N[C@H]1C(=O)N[C@@H](CC(N)=O)C(=O)N[C@H]2C(=O)N[C@H]3C(=O)N[C@H](C(=O)N[C@H](C(=O)NCCC[S+](C)CC(O)COc4cccc(Cl)c4)c4cc(O)cc(O)c4-c4cc3ccc4O)[C@H](O)c3ccc(c(Cl)c3)Oc3cc2cc(c3O[C@@H]2O[C@H](CO)[C@@H](O)[C@H](O)[C@H]2O[C@H]2C[C@](C)(N)[C@H](O)[C@H](C)O2)Oc2ccc(cc2Cl)[C@H]1O.O=C([O-])C(F)(F)F (stereo partly specified),16,0.125,1,> 128,8,4,128,64,16,2,32
CN[C@H](CC(C)C)C(=O)N[C@H]1C(=O)N[C@@H](CC(N)=O)C(=O)N[C@H]2C(=O)N[C@H]3C(=O)N[C@H](C(=O)N[C@H](C(=O)NCCC[S+](C)CC(O)COc4ccc(Br)cc4)c4cc(O)cc(O)c4-c4cc3ccc4O)[C@H](O)c3ccc(c(Cl)c3)Oc3cc2cc(c3O[C@@H]2O[C@H](CO)[C@@H](O)[C@H](O)[C@H]2O[C@H]2C[C@](C)(N)[C@H](O)[C@H](C)O2)Oc2ccc(cc2Cl)[C@H]1O.O=C([O-])C(F)(F)F (stereo partly specified),8,≤ 0.063,1,> 128,4,4,128,64,16,4,32
CN[C@H](CC(C)C)C(=O)N[C@H]1C(=O)N[C@@H](CC(N)=O)C(=O)N[C@H]2C(=O)N[C@H]3C(=O)N[C@H](C(=O)N[C@H](C(=O)NCCC[S+](C)CC(O)COc4ccc(Cl)cc4)c4cc(O)cc(O)c4-c4cc3ccc4O)[C@H](O)c3ccc(c(Cl)c3)Oc3cc2cc(c3O[C@@H]2O[C@H](CO)[C@@H](O)[C@H](O)[C@H]2O[C@H]2C[C@](C)(N)[C@H](O)[C@H](C)O2)Oc2ccc(cc2Cl)[C@H]1O.O=C([O-])C(F)(F)F (stereo partly specified),16,≤ 0.063,1,> 128,8,8,128,128,16,4,32
CN[C@H](CC(C)C)C(=O)N[C@H]1C(=O)N[C@@H](CC(N)=O)C(=O)N[C@H]2C(=O)N[C@H]3C(=O)N[C@H](C(=O)N[C@H](C(=O)O)c4cc(O)c(CNCCC[S+](C)C[C@@H](O)COc5ccccc5)c(O)c4-c4cc3ccc4O)[C@H](O)c3ccc(c(Cl)c3)Oc3cc2cc(c3O[C@@H]2O[C@H](CO)[C@@H](O)[C@H](O)[C@H]2O[C@H]2C[C@](C)(N)[C@H](O)[C@H](C)O2)Oc2ccc(cc2Cl)[C@H]1O.O=C([O-])C(F)(F)F (stereo partly specified),> 128,0.5,4,> 128,2,128,> 128,> 128,16,4,128
CN[C@H](CC(C)C)C(=O)N[C@H]1C(=O)N[C@@H](CC(N)=O)C(=O)N[C@H]2C(=O)N[C@H]3C(=O)N[C@H](C(=O)N[C@H](C(=O)O)c4cc(O)c(CNCCC[S+](C)CC(O)COc5ccc(-c6ccccc6)cc5)c(O)c4-c4cc3ccc4O)[C@H](O)c3ccc(c(Cl)c3)Oc3cc2cc(c3O[C@@H]2O[C@H](CO)[C@@H](O)[C@H](O)[C@H]2O[C@H]2C[C@](C)(N)[C@H](O)[C@H](C)O2)Oc2ccc(cc2Cl)[C@H]1O.O=C([O-])C(F)(F)F (stereo partly specified),4,≤ 0.063,≤ 0.063,> 128,≤ 0.063,4,> 128,32,16,≤ 0.063,16
CN[C@H](CC(C)C)C(=O)N[C@H]1C(=O)N[C@@H](CC(N)=O)C(=O)N[C@H]2C(=O)N[C@H]3C(=O)N[C@H](C(=O)N[C@H](C(=O)NCCC[S+](C)CC(O)COc4ccc(OC)cc4)c4cc(O)cc(O)c4-c4cc3ccc4O)[C@H](O)c3ccc(c(Cl)c3)Oc3cc2cc(c3O[C@@H]2O[C@H](CO)[C@@H](O)[C@H](O)[C@H]2O[C@H]2C[C@](C)(N)[C@H](O)[C@H](C)O2)Oc2ccc(cc2Cl)[C@H]1O.O=C([O-])C(F)(F)F (stereo partly specified),32,0.25,2,> 128,16,16,> 128,64,16,4,64
